Reference: the supplement of paper PMC9763283

Tests used:
Assay in all cases: area under growth-rate inhibition curve (AUC GRI) (dimensionless (GR-based AUC)); higher = less growth inhibition
Conditions in all cases: exposure time: 72 h; concentrations: 0.1, 1, 10 uM
SKBR3-P = system: SKBR3-P
Method in brief: (§1)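 Six breast cancer cell line models were used: two triple-negative lines, plus parental HER2+ lines and HER2+ lines resistant to a two-drug combination, each plated at an optimised log-phase density and treated with compound at 0.1, 1 or 10 µM for 72 h. After fixation in 4% paraformaldehyde, nuclei were stained with Hoechst 33342 or DAPI, imaged and counted. Growth was corrected using Day 0 plates, untreated Day 3 plates and DMSO controls, with 2 biological replicates. These corrected counts gave the area under the growth-rate inhibition curve.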

MDA-MB-231 = system: MDA-MB-231
Method in brief: as §1

BT474-LTR = system: BT474-LTR
Method in brief: as §1

MDA-MB-468 = system: MDA-MB-468
Method in brief: as §1

SKBR3-LTR = system: SKBR3-LTR
Method in brief: as §1

BT474-P = system: BT474-P
Method in brief: as §1

Structure (SMILES) | area under growth-rate inhibition curve (SKBR3-P) | area under growth-rate inhibition curve (MDA-MB-231) | area under growth-rate inhibition curve (BT474-LTR) | area under growth-rate inhibition curve (MDA-MB-468) | area under growth-rate inhibition curve (SKBR3-LTR) | area under growth-rate inhibition curve (BT474-P)
Cc1c(-c2ccc(O)cc2)n(Cc2ccc(OCCN3CCCCCC3)cc2)c2ccc(O)cc12.[Cl-].[H+] [Bazedoxifene HCl] | 0.956 | 0.9 | 0.949 | 0.898 | 0.944 | 0.755
Oc1ccc([C@H]2COc3cc(O)ccc3C2)cc1 [Equol] | 1.05 | 1.02 | 1.08 | 1.01 | 1.05 | 1.07
CCc1c(C(=O)NCCc2ccc(N3CCCCC3)cc2)[nH]c2ccc(Cl)cc12 | 0.994 | 1.02 | 1.06 | 0.994 | 1.09 | 1.04
CN1CCC(c2c[nH]c3ccc(O)cc23)CC1 | 1.02 | 1 | 0.996 | 0.984 | 0.997 | 0.996
CN(C)C(=O)N[C@H]1CC[C@H](CCN2CCN(c3cccc(Cl)c3Cl)CC2)CC1 [Cariprazine] | 1.01 | 1.02 | 1.04 | 1.02 | 1.05 | 1.02
COc1ccc([C@@H]2CC(=O)c3c(O)cc(O)cc3O2)cc1O [Hesperetin] | 1.03 | 1 | 1.02 | 0.996 | 1.02 | 1.01
Cc1cc2c(s1)Nc1ccccc1N=C2N1CCN(C)CC1 [Olanzapine] | 0.97 | 1.01 | 1.08 | 1.03 | 1.06 | 1.02
C[C@]12CCC(=O)C=C1CC[C@H]1[C@@H]3CC[C@@](C)(O)[C@@]3(C)C[C@H](O)[C@@]12F [Fluoxymesterone] | 1.01 | 0.995 | 0.955 | 1.04 | 1.03 | 0.937
CN1CCCC(n2nc(Cc3ccc(Cl)cc3)c3ccccc3c2=O)CC1.[Cl-].[H+] (configuration not stated) [Azelastine HCl] | 0.938 | 1.02 | 1.06 | 0.985 | 1.02 | 1.01
CCCSc1nc(NC2CC2c2ccc(F)c(F)c2)c2nnn(C3CC(OCCO)C(O)C3O)c2n1 (configuration not stated) [Ticagrelor] | 0.995 | 0.975 | 0.984 | 0.975 | 0.968 | 0.922
Nc1cc(-c2ccncc2)c[nH]c1=O [inamrinone] | 1.03 | 1.04 | 1.03 | 1.06 | 1.05 | 0.994
COc1cc2c(cc1OC)C1Cc3ccc(OC)c(OC)c3CN1CC2 (configuration not stated) [Rotundine] | 0.992 | 0.997 | 1.11 | 1.02 | 1.04 | 1.03
Oc1ccc2ccc(OCCCCN3CCN(c4cccc5sccc45)CC3)cc2n1 [Brexpiprazole] | 1.03 | 1 | 1.05 | 0.99 | 1.02 | 1.04
CC(C[N+](C)(C)C)OC(N)=O.[Cl-] (configuration not stated) [Bethanechol chloride] | 1.03 | 1.03 | 1.11 | 1.04 | 1.07 | 1.05
C=CCN1CC[C@]23c4c5ccc(O)c4O[C@H]2C(=O)CC[C@@]3(O)[C@H]1C5.[Cl-].[H+] [Naloxone HCl] | 1.03 | 1.04 | 1.08 | 1.02 | 1.05 | 1.05
CCN(CC)CCOC(=O)c1ccc(N)cc1.[Cl-].[H+] [procaine] | 1.01 | 1.03 | 1.05 | 1.03 | 1.07 | 1.02
C[C@]12N[C@H](Cc3ccccc31)c1ccccc12 [MK-801 (Dizocilpine)] | 0.998 | 1.03 | 1.09 | 1.05 | 1.06 | 1.03
COS(=O)(=O)[O-].C[N+]1(C)CCC(=C(c2ccccc2)c2ccccc2)CC1 [Diphemanil Methylsulfate] | 0.971 | 1.03 | 1.03 | 1.01 | 1.03 | 1.05
Cc1cc(NC(=O)Nc2ccc(N(C)C)cc2)c2cc(F)cc(F)c2n1 | 1 | 0.936 | 0.977 | 0.951 | 0.958 | 0.963
COc1ccc2c(c1)c(CC(=O)N1CCOCC1)c(C)n2C(=O)c1ccc(Cl)cc1 [BML-190] | 1.02 | 1.01 | 1.08 | 1.01 | 1.03 | 1.03
CN(C)[C@@H](CCOc1cccc2ccccc12)c1ccccc1.[Cl-].[H+] [Dapoxetine HCl] | 0.974 | 1.02 | 1.03 | 0.991 | 1.03 | 0.985
COc1ccc(C(=O)N2CCCC2=O)cc1 [Aniracetam] | 1.01 | 1.01 | 1.08 | 1.02 | 1 | 1.04
CCCC(=O)O[C@]1(C(=O)COC(C)=O)CC[C@H]2[C@@H]3C[C@H](F)C4=CC(=O)C=C[C@]4(C)[C@@]3(F)[C@@H](O)C[C@@]21C [Difluprednate] | 0.939 | 0.975 | 1.02 | 1.03 | 1.04 | 0.976
CC[C@H](c1ccc(O)cc1)[C@@H](CC)c1ccc(O)cc1 [Hexestrol] | 0.989 | 1.02 | 1.06 | 0.973 | 0.993 | 1.05
O=C(O)CCCN1CCC(OC(c2ccc(Cl)cc2)c2ccccn2)CC1.O=S(=O)(O)c1ccccc1 (configuration not stated) [Bepotastine Besilate] | 0.992 | 1.03 | 1.09 | 1.03 | 1.06 | 1.03
CCCC(=O)Nc1ccc(OCC(O)CNC(C)C)c(C(C)=O)c1.[Cl-].[H+] (configuration not stated) [Acebutolol HCl] | 1.04 | 1.03 | 1.11 | 1.03 | 1.07 | 1.05
CC(CCc1ccc(O)cc1)NCCc1ccc(O)c(O)c1.[Cl-].[H+] (configuration not stated) [Dobutamine hydrochloride] | 1.03 | 1.02 | 1.01 | 1.04 | 1.07 | 0.992
